Measurements from patent US10668033B2, “Modulators of the prostacyclin (PGI2) receptor useful for the treatment of disorders related thereto” (Arena Pharmaceuticals, Inc., priority 2008, dated 2020).
pIC50: −log10 of the molar value.

Assays:
[1] = system: MCT-induced pulmonary arterial hypertension; experiment: Rat monocrotaline (MCT) model of pulmonary arterial hypertension; format: in vivo; details: 30 mg/kg oral gavage twice a day for 21 days; 60 mg/kg MCT s.c.; male Wistar rats
Description: Male Wistar rats (100-150 g at start of study) (Charles River Laboratories, Wilmington, Mass.) were housed two per cage and maintained in a humidity—(40-60%) and temperature—(68-72° F.) controlled facility on a 12 hr:12 hr light/dark cycle (lights on at 6:30 am) with free access to food (Harlan Teklad, Orange Calif., Rodent Diet 8604) and water. Rats were allowed one week of habituation to the animal facility before testing.
The rat monocrotaline (MCT) model is a standard and well-accepted model of pulmonary arterial hypertension. MCT induces acute pulmonary endothelial damage associated with pulmonary vascular inflammation. […]
Rats were randomly given a single subcutaneous injection of either 60 mg/kg MCT (Sigma, St. Louis, Mo.) or 0.9% saline (sham) and assigned to receive oral administration of 20% hydroxypropyl beta-cyclodextrin (vehicle) or test compound (30 mg/kg; FIGS. 7 and 8). […] Heart chamber weights were measured on Day 22. […] The ratio of right ventricular (RV) weight to left ventricle plus septum (LV+S) weight (this ratio is indicated as “RV/(LV+S)” in FIGS. 7 and 8) was calculated as an index of the hypertrophic response to the induced pulmonary arterial hypertension and, as such, as an index of a test compound's therapeutic efficacy for pulmonary arterial hypertension.

[2] = system: human PRP; experiment: Human platelet aggregation inhibition test; format: cell-based; details: ADP (1×10^−5 M) induced aggregation
Description: Blood collected from healthy human volunteers in aqueous trisodium citrate solution was centrifuged at 150 g for 15 min and the upper layer was recovered to obtain platelet-rich plasma (PRP). The residual blood was centrifuged at 3000 g for 10 min and the supernatant was collected as platelet-poor plasma (PPP). Platelet concentration in the PRP was determined using the Z series Beckman Coulter particle counter (Beckman, Fullerton, Calif.) and adjusted to 250,000 platelets/μL using PPP. 480 μL of PRP was pre-incubated at 37° C. and stirred at 1200 rpm with 10 μL aqueous test compound solution for 1 min prior to induction of aggregation by the addition of 10 μL of aqueous adenosine diphosphate (ADP) solution to adjust the final ADP concentration in the PRP to 1×10^−5 M. The maximal amplitude of aggregation response within 3 min was determined and measured in triplicate using the Chronolog model 490 aggregometer (Chrono-log Corp., Havertown, Pa.). Percent inhibition of aggregation was calculated from the maximum decrease in optical density of the control (addition of water in place of the test compound solution) sample and of the samples containing test compound. The test compound was added to adjust the final concentration to the range 10^−9 to 10^−4 M, and IC50 values were determined by inhibition percentage of aggregation at each concentration.

[3] = target: human prostacyclin (PGI2) receptor (Homo sapiens (Human), UniProt P43119); experiment: HTRF assay for direct cAMP measurement; format: cell-based; details: recombinant CHO-K1 cells stably transfected with human prostacyclin receptor; cAMP increase
Text: Compounds were screened for agonists of the human prostacyclin (PGI2) receptor using the HTRF® assay for direct cAMP measurement (Gabriel et al., ASSAY and Drug Development Technologies, 1:291-303, 2003) and recombinant CHO-K1 cells stably transfected with human prostacyclin receptor. CHO-K1 cells were obtained from ATCC® (Manassas, Va.; Catalog # CCL-61). An agonist of the prostacyclin receptor was detected in HTRF® assay for direct cAMP measurement as a compound which increased cAMP concentration. HTRF® assay also was used to determine EC50 values for prostacyclin receptor agonists.
The HTRF® assay kit was purchased from Cisbio-US, Inc. (Bedford, Mass.; Catalog #62AM4PEC). The HTRF® assay supported by the kit is a competitive immunoassay between endogenous cAMP produced by the CHO-K1 cells and tracer cAMP labeled with the dye d2. The tracer binding is visualized by a monoclonal anti-cAMP antibody labeled with Cryptate. The specific signal (i.e., fluorescence resonance energy transfer, FRET) is inversely proportional to the concentration of unlabeled cAMP in the standard or sample.
The fluorescence ratio (665 nm/620 nm) of the standards (0.17 to 712 nM cAMP) included in the assay was calculated and used to generate a cAMP standard curve according to the kit manufacturer's instructions. The fluorescence ratio of the samples (test compound or compound buffer) was calculated and used to deduce respective cAMP concentrations by reference to the cAMP standard curve.
The HTRF® assay was carried out using a two-step protocol essentially according to the kit manufacturer's instructions, in 20 μL total volume per well in 384-well plate format (ProxiPlates; PerkinElmer, Fremont, Calif.; catalog #6008280). To each of the experimental wells was transferred 3000 recombinant CHO-K1 cells in 5 μL assay buffer (phosphate buffered saline containing calcium chloride and magnesium chloride (Invitrogen, Carlsbad, Calif.; catalog #14040) supplemented with IBMX (100 μM) and rolipram (10 μM) (phosphodiesterase inhibitors; Sigma-Aldrich, St. Louis, Mo.; catalog #15879 and catalog # R6520, respectively) and 0.1% bovine serum albumin (BSA) fraction V (Sigma-Aldrich; catalog # A3059)), followed by test compound in 5 μL assay buffer or 5 μL assay buffer. The plate was then incubated at room temperature for 1 h. To each well was then added 5 μL cAMP-d2 conjugate in lysis buffer and 5 μL Cryptate conjugate in lysis buffer according to the kit manufacturer's instructions. The plate was then further incubated at room temperature for 1 h, after which the assay plate was read.
The HTRF® readout was accomplished using a PHERAstar (BMG LABTECH Inc., Durham, N.C.) or EnVision™ (PerkinElmer, Fremont Calif.) microplate reader.

[4] = system: beagle dog hepatocytes; experiment: Hepatocyte metabolism of Compound 22 sodium salt, dog; format: in vitro ADME; details: 100 μM, up to 240 min
Description: (§1) All cryopreserved hepatocytes were thawed and diluted to a desired cell density (1×10^6 cells/mL) according to the supplier's (Xenotech) guidelines using hepatocytes isolation kit. Cell viability was determined by trypan blue exclusion using a hemacytometer. A typical incubation mixture contained human, cynomolgus monkey, beagle dog or Sprague-Dawley rat hepatocytes (200,000 cells/199 μL) in designated wells of a 48-well plate containing incubation medium (Phenol red-free Waymouth's medium). […] One incubation plate was prepared for each time point (i.e., 0, 60, 120, and 240 min) with samples being prepared in duplicate. Incubations were conducted at 37° C., 5% CO2 and 100% relative humidity in an incubator. At each time point, one incubation plate was removed form the incubator, and reaction was terminated by adding 400 μL of acetonitrile containing an internal standard. For the 0 min time point, the reactions were kept on ice before adding Compound 22 sodium salt. After 5 min on ice, the reaction mixture was terminated by adding 400 μL of acetonitrile containing an internal standard. Supernatants were transferred to labeled strip tubes with caps, which were vortexed for 3 min, and then sonicated for an additional 3 min. The samples were centrifuged for 10 min at 4000 rpm and the supernatants were used for metabolite identification. […]

[5] = system: human hepatocytes; experiment: Hepatocyte metabolism of Compound 22 sodium salt, human; format: in vitro ADME; details: 100 μM, up to 240 min
Description: as §1

[6] = In vivo metabolism of Compound 22 sodium salt in bile-duct cannulated rats; parameters: species or system Sprague-Dawley rat
Description: Three bile-duct cannulated male Sprague-Dawley rats were dosed intravenously (IV) at 2.00 mg/kg. In addition to plasma samples, bile and urine were collected from 0 to 48 hours post-dose.

[7] = system: cynomolgus monkey hepatocytes; experiment: Hepatocyte metabolism of Compound 22 sodium salt, monkey; format: in vitro ADME; details: 100 μM, up to 240 min
Description: as §1

[8] = Pharmacokinetics in rats after oral administration of Compound 99; format: in vivo, Sprague-Dawley rat
Description: Blood samples were obtained from 0.100 to 21.0 h post-dose for plasma drug concentration measurements. […] Pharmacokinetic parameters were estimated using non-compartmental pharmacokinetic analysis.

[9] = system: Sprague-Dawley rat hepatocytes; experiment: Hepatocyte metabolism of Compound 22 sodium salt, rat; format: in vitro ADME; details: 100 μM, up to 240 min
Description: as §1

[10] = Sprague-Dawley, rat, plasma analyte after 1.25 mg/kg oral dose of Compound 99, male rats

Chain of human prostacyclin (PGI2) receptor (P43119 whole entry): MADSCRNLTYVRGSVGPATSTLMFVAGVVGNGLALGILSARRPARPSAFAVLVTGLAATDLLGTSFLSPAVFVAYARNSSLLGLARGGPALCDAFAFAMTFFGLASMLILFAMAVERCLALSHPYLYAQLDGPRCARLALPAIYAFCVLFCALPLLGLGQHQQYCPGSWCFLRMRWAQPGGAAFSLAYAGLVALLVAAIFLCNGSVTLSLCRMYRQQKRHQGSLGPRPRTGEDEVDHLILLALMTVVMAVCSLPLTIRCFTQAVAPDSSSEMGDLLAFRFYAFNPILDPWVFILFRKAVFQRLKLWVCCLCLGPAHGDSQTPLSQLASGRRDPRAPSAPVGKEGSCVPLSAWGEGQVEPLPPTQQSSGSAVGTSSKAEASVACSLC

## O=C(O)COC[C@H]1CC[C@H](COC(=O)N(c2ccccc2)c2cccc(F)c2)CC1 [Compound 23, 2-(((1r,4r)-4-(((3-fluorophenyl)(phenyl)carbamoyloxy)methyl)cyclohexyl)methoxy)acetic acid]
[1]
  hypertrophic response, RV/(LV+S): inhibited the hypertrophic response

## Cc1ccc(N(C(=O)OC[C@H]2CC[C@H](COCC(=O)O)CC2)c2ccccc2)s1 [Compound 50, 2-(((1r,4r)-4-(((5-methylthiophen-2-yl)(phenyl)carbamoyloxy)methyl)cyclohexyl)methoxy)acetic acid]
[2]
  pIC50: 7.90

## COc1ccc(N(C(=O)OC[C@H]2CC[C@H](COCC(=O)O)CC2)c2cccc(F)c2)cc1 [Compound 55, 2-(((1r,4r)-4-(((3-fluorophenyl)(4-methoxyphenyl)carbamoyloxy)methyl)cyclohexyl)methoxy)acetic acid]
[3]
  EC50: 5.14 nM

## O=C(O)COC[C@H]1CC[C@H](CNC(=O)N(c2ccccc2)c2ccccc2)CC1 [Compound 2, 2-(((1r,4r)-4-((3,3-diphenylureido)methyl)cyclohexyl)methoxy)acetic acid]
[2]
  pIC50: 7.14

## O=C(O)COC[C@H]1CC[C@H](CNC(=O)N(c2ccccc2)c2cccc(Cl)c2)CC1 [Compound 6, 2-(((1r,4r)-4-((3-(3-chlorophenyl)-3-phenylureido)methyl)cyclohexyl)methoxy)acetic acid]
[3]
  EC50: 61.1 nM

## O=C(COC[C@H]1CC[C@H](COC(=O)N(c2ccccc2)c2ccc(Cl)cc2)CC1)NCCS(=O)(=O)O [Compound 99, 2-(2-(((1r,4r)-4-(((4-chlorophenyl)(phenyl)carbamoyloxy)methyl)cyclohexyl)methoxy)acetamido) ethanesulfonic acid]
[4]
  metabolite of Compound 22 sodium salt in dog hepatocytes: detected
[5]
  metabolite of Compound 22 sodium salt in human hepatocytes: detected
[6]; 2.00 mg/kg IV of Compound 22 sodium salt, bile 0 to 48 hours
  metabolite in bile: observed in bile
[6]; 2.00 mg/kg IV of Compound 22 sodium salt, urine 0 to 48 hours
  metabolite in urine: not observed in urine
[6]; 2.00 mg/kg IV, male rats
  metabolite of Compound 22 sodium salt in rats: major metabolite
[7]
  metabolite of Compound 22 sodium salt in monkey hepatocytes: detected
[8]; 1.25 mg/kg oral dose in rats
  conversion to parent: converted to Compound 22
  exposure: minimal exposure
[8]; [10]
  AUC(0-t): 11.9 ng·h/mL
  Cmax at 3.33 h: 1.93 ng/mL
[8]; Sprague-Dawley, rat, plasma analyte after 1.25 mg/kg oral dose of Compound 99, male rats, read-out: terminal phase half-life (T1/2) (converted)
  half-life: 3.24 h
[8]; male, Sprague-Dawley, rat, plasma, 10 mg/kg, after oral dose of the taurine conjugate of Compound 22
  Tmax: 3 h
[8]; plasma analyte after 1.25 mg/kg oral dose of Compound 99, male rats
  time of Cmax: 3.33 h
[9]
  metabolite of Compound 22 sodium salt in rat hepatocytes: detected

## CCOc1ccc(N(C(=O)OC[C@H]2CC[C@H](COCC(=O)O)CC2)c2ccccc2)cc1 [Compound 88, 2-(((1r,4r)-4-(((4-ethoxyphenyl)(phenyl)carbamoyloxy)methyl)cyclohexyl)methoxy)acetic acid]
[2]
  pIC50: 7.15

## O=C(O)CNC(=O)COC[C@H]1CC[C@H](COC(=O)N(c2ccccc2)c2ccc(Cl)cc2)CC1 [Compound 100, 2-(2-(((1r,4r)-4-(((4-chlorophenyl)(phenyl)carbamoyloxy)methyl)cyclohexyl)methoxy)acetamido) acetic acid]
[4]
  metabolite of Compound 22 sodium salt in dog hepatocytes: only detected in human and monkey
[5]
  metabolite of Compound 22 sodium salt in human hepatocytes: detected
[7]
  metabolite of Compound 22 sodium salt in monkey hepatocytes: detected
[9]
  metabolite of Compound 22 sodium salt in rat hepatocytes: only detected in human and monkey

## Cc1ccc(N(C(=O)OC[C@H]2CC[C@H](COCC(=O)O)CC2)c2cccc(F)c2)s1 [Compound 71, 2-(((1r,4r)-4-(((3-fluorophenyl)(5-methylthiophen-2-yl)carbamoyloxy)methyl)cyclohexyl)methoxy)acetic acid]
[3]
  EC50: 19.1 nM

## O=C(O)COC[C@H]1CC[C@@H](COC(=O)N(c2ccccc2)c2ccc(F)cc2)CC1 [Compound 35, 2-(((1s,4s)-4-(((4-fluorophenyl)(phenyl)carbamoyloxy)methyl)cyclohexyl)methoxy)acetic acid]
[3]
  EC50: 56.9 nM

## O=C(O)COC[C@H]1CC[C@@H](COC(=O)N(c2ccccc2)c2cccc(Cl)c2)CC1 [Compound 30, 2-(((1s,4s)-4-(((3-chlorophenyl)(phenyl)carbamoyloxy)methyl)cyclohexyl)methoxy)acetic acid]
[2]
  pIC50: 6.68
